Data set [1] concerns SARS-CoV-2. The data set can be described thus: Antiviral activity against SARS-Cov-2 infected in african green monkey Vero E6 cells assessed as inhibition of viral replication at 10 uM pretreated with compound for 1 hr followed by viral infection for 2 hrs measured after 24 hrs post infection by qRt-PCR analysis relative to control. Type of data set: functional. Particulars: Severe acute respiratory syndrome coronavirus 2, Vero C1008, time 27 hrs.

The target in data set [2] is T1, Replicase polyprotein 1ab (Severe acute respiratory syndrome coronavirus 2, UniProt P0DTD1). The data set can be described thus: Inhibition of SARS-CoV-2 3CL protease using MCA-AVLQSGFR-Lys(Dnp)-Lys-NH2 as flurogenic substrate pre-incubated with compound for 10 mins followed by substrate addition measured after 10 mins by FRET assay.
Data set [3] concerns SARS-CoV-2. The data set can be described thus: Antiviral activity against SARS-Cov-2 infected in human Calu-3 cells assessed as inhibition of viral replication pretreated with compound for 1 hr followed by viral infection for 2 hrs measured after 24 hrs post infection by qRt-PCR analysis. Format: functional, organism-based. Particulars: Severe acute respiratory syndrome coronavirus 2, Calu-3.

Data set [4] can be described thus: Cytotoxicity against human Calu-3 cells by CCK-8 assay. Type of data set: toxicity, cell-based. (In general: Tetrazolium assays rely on reduction of a dye to a coloured formazan, in cell work by metabolically active cells.)
The target in data set [5] is T2, Spike glycoprotein (Severe acute respiratory syndrome coronavirus 2, UniProt P0DTC2). The data set can be described thus: Binding affinity to SARS-CoV-2 Spike glycoprotein receptor-binding domain at 1.875 to 50 uM in presence of wallichins C by SPR assay. (In general: SPR reads the build-up and loss of mass on a sensor chip optically.)
Data set [6] deals with SARS-CoV-2. Briefly: Antiviral activity against SARS CoV-2 VSV-delG pseudotype infected in african green monkey Vero E6 at 100 uM measured after 15 hrs post infection relative to control. Format: functional. Particulars: Severe acute respiratory syndrome coronavirus 2, Vero C1008.
The test system of data set [7] is SARS-CoV-2. Briefly: Antiviral activity against SARS-Cov-2 infected in african green monkey Vero E6 cells assessed as inhibition of viral replication at 10 uM pretreated with compound for 1 hr followed by viral infection for 2 hrs measured after 24 hrs post infection in presence of wallichins C by qRt-PCR analysis relative to control. Type of data set: functional. Particulars: Severe acute respiratory syndrome coronavirus 2, Vero C1008, time 27 hrs.

Data set [8] deals with T1, Replicase polyprotein 1ab. The data set can be described thus: Binding affinity to SARS-CoV-2 3CL protease at 1.875 to 50 uM by SPR assay.
In data set [9] the test system is SARS-CoV-2. Briefly: Antiviral activity against SARS-Cov-2 infected in human Calu-3 cells assessed as inhibition of viral replication pretreated with compound for 1 hr followed by viral infection for 2 hrs measured after 24 hrs post infection in presence of wallichins C by qRt-PCR analysis. Format: functional, organism-based. Particulars: Severe acute respiratory syndrome coronavirus 2, Calu-3.

Data set [10] can be described thus: Selectivity index, ratio of CC50 for African green monkey Vero cells in presence of […] to EC50 for SARS-Cov-2 infected in african green monkey Vero E6 cells assessed as inhibition of viral replication in presence of wallichins C. The note with it: read-out: Selectivity Index. Type of data set: toxicity, Vero C1008.
A short description of data set [11]: Selectivity index, ratio for CC50 of African green monkey Vero E6 cells to EC50 for SARS-Cov-2 infected in african monkey Vero E6 cells. Particulars: read-out: Selectivity Index. Type of data set: toxicity, Vero C1008.
Data set [12] in a line: Cytotoxicity against human Calu-3 cells in presence of wallichins C by CCK-8 assay. Format: toxicity, cell-based.
In data set [13] the target is T2, Spike glycoprotein. The data set can be described thus: Binding affinity to SARS-CoV-2 Spike glycoprotein receptor-binding domain at 1.875 to 50 uM by SPR assay.
The nature of data set [14]: Cytotoxicity against African green monkey Vero E6 cells by CCK-8 assay. Format: toxicity, cell-based, Vero C1008. The note with it: chlorocebus sabaeus.
Data set [15] deals with T1, Replicase polyprotein 1ab. The data set can be described thus: Binding affinity to SARS-CoV-2 3CL protease at 1.875 to 50 uM in presence of wallichins C by SPR assay.
Data set [16] can be described thus: Cytotoxicity against African green monkey Vero E6 cells in presence of wallichins C by CCK-8 assay. Type of data set: toxicity, cell-based, Vero C1008. The note with it: chlorocebus sabaeus.
Data set [17] deals with SARS-CoV-2. The data set can be described thus: Antiviral activity against SARS-Cov-2 infected in african green monkey Vero E6 cells assessed as inhibition of viral replication pretreated with compound for 1 hr followed by viral infection for 2 hrs measured after 24 hrs post infection in presence of wallichins C by qRt-PCR analysis. Type of data set: functional, organism-based. The note with it: Severe acute respiratory syndrome coronavirus 2, Vero C1008.

In data set [18] the test system is SARS-CoV-2. The data set can be described thus: Antiviral activity against SARS-Cov-2 infected in african green monkey Vero E6 cells assessed as inhibition of viral replication pretreated with compound for 1 hr followed by viral infection for 2 hrs measured after 24 hrs post infection by qRt-PCR analysis. Particulars: Severe acute respiratory syndrome coronavirus 2, Vero C1008. Format: functional, organism-based.

For data set [19], the target named is T1, Replicase polyprotein 1ab. Briefly: Inhibition of SARS-CoV-2 3CL protease using MCA-AVLQSGFR-Lys(Dnp)-Lys-NH2 as flurogenic substrate pre-incubated with compound for 10 mins followed by substrate addition measured after 10 mins in presence of wallichins C by FRET assay.
In data set [20] the target is T2, Spike glycoprotein. The data set can be described thus: Binding affinity to SARS-CoV-2 Spike glycoprotein receptor-binding domain at 1.875 to 50 uM in presence of wallichins D by SPR assay.
For data set [21], the system named is SARS-CoV-2. Briefly: Antiviral activity against SARS-Cov-2 infected in human Calu-3 cells assessed as inhibition of viral replication pretreated with compound for 1 hr followed by viral infection for 2 hrs measured after 24 hrs post infection in presence of wallichins D by qRt-PCR analysis. Type of data set: functional, organism-based. Particulars: Severe acute respiratory syndrome coronavirus 2, Calu-3.

Data set [22] has as its target T1, Replicase polyprotein 1ab. Briefly: Binding affinity to SARS-CoV-2 3CL protease at 1.875 to 50 uM in presence of wallichins D by SPR assay.
The subject of data set [23] is SARS-CoV-2. The data set can be described thus: Antiviral activity against SARS-Cov-2 infected in african green monkey Vero E6 cells assessed as inhibition of viral replication pretreated with compound for 1 hr followed by viral infection for 2 hrs measured after 24 hrs post infection in presence of wallichins D by qRt-PCR analysis. Format: functional, organism-based. The note with it: Severe acute respiratory syndrome coronavirus 2, Vero C1008.

Data set [24] in a line: Cytotoxicity against African green monkey Vero E6 cells in presence of wallichins D by CCK-8 assay. Format: toxicity, cell-based, Vero C1008. The note with it: chlorocebus sabaeus.
A short description of data set [25]: Selectivity index, ratio of CC50 for African green monkey Vero cells in presence of wallichins D to EC50 for SARS-Cov-2 infected in african green monkey Vero E6 cells assessed as inhibition of viral replication in presence of wallichins D. Type of data set: toxicity, Vero C1008. Particulars: read-out: Selectivity Index.
In data set [26] the test system is SARS-CoV-2. Briefly: Antiviral activity against SARS-Cov-2 infected in african green monkey Vero E6 cells assessed as inhibition of viral replication at 10 uM pretreated with compound for 1 hr followed by viral infection for 2 hrs measured after 24 hrs post infection in presence of wallichins D by qRt-PCR analysis relative to control. Format: functional. Particulars: Severe acute respiratory syndrome coronavirus 2, Vero C1008, time 27 hrs.

Data set [27] is described as follows: Cytotoxicity against human Calu-3 cells in presence of wallichins D by CCK-8 assay. Type of data set: toxicity, cell-based.
The target in data set [28] is T1, Replicase polyprotein 1ab. The data set can be described thus: Inhibition of SARS-CoV-2 3CL protease using MCA-AVLQSGFR-Lys(Dnp)-Lys-NH2 as flurogenic substrate pre-incubated with compound for 10 mins followed by substrate addition measured after 10 mins in presence of wallichins D by FRET assay.

A value given as a limit tells only on which side of the number the result lay.

In general, inhibition refers to the percentage by which the read-out fell short of the control. Take `C=C1CC[C@H]2[C@@](C)(CCC[C@]2(C)C(=O)O)[C@@H]1C/C=C(\C)[C@H]1CCC2=C(O1)C(C)(C)C(O)=C(C(C)=O)C2=O`: the inhibition at 10 µM in data set [1] came to 51.7%.

As a reminder, the IC50 is the midpoint of a concentration-inhibition curve. A word on the EC50: it is the concentration giving half of the maximal effect. For orientation: CC50 means the concentration that lowers cell viability or growth by half. A word on the Kd: it is a measure of binding affinity in units of concentration. By inhibition in vivo is commonly meant the drop in the measured response relative to a control, in per cent. Consider `C=C1CC[C@H]2[C@@](C)(CCC[C@]2(C)C(=O)O)[C@@H]1C/C=C(\C)[C@H]1CCc2c(O)c(CC3C(=O)C(C(C)=O)=C(O)C(C)(C)C3O)c(O)c(C(=O)CCC)c2O1` (some centres not stated), for which the IC50 in [2] is 8.1 µM; in data set [19], 5.6 µM. Besides, the EC50 in [3] amounted to 30 µM; in [9], 24.8 µM; in data set [17] it was 6.8 µM; in data set [18] it was 12.1 µM. Besides, the cytotoxic concentration (CC50) is 64.3 µM in data set [4], 72.4 µM in data set [12], above 140 µM in data set [14] and above 140 µM in data set [16]. The Kd is 64.7 µM in [5], 14.3 µM in data set [8], 67.9 µM in data set [13] and 12 µM in data set [15]. In data set [6], this compound displayed an inhibition in vivo at 100 µM below 50%. Further, the inhibition at 10 µM in data set [7] came out at 87.7%. The selectivity ratio is above 27 in data set [10] and above 11 in [11].

`C=C1CC[C@H]2[C@@](C)(CCC[C@]2(C)C(=O)O)[C@@H]1C/C=C(\C)[C@@H]1CCc2c(O)c(CC3C(=O)C(C(C)=O)=C(O)C(C)(C)C3O)c(O)c(C(=O)CCC)c2O1` (some centres not stated): the IC50 in [2] was determined as 7.5 µM; in data set [28], 5.6 µM. Besides, the EC50 in data set [3] stood at 20.2 µM; in data set [21], 24.8 µM; in data set [23], 6.8 µM; in [18] it was 4.5 µM. Moreover, the Kd in data set [20] was 64.7 µM; in data set [22] it was 12 µM; in [8], 16.6 µM; in data set [13] it was 91.7 µM. For the same compound, the CC50 in data set [4] was 98.6 µM; in data set [14], above 140 µM; in [24], above 140 µM; in [27] it was 72.4 µM. In addition, the inhibition in vivo at 100 µM in data set [6] is below 50%. The selectivity ratio in data set [11] was above 35; in data set [25], above 27. Also, the inhibition at 10 µM in [26] was found to be 87.7%.

Source of the values: ChEMBL document CHEMBL5131463, “Target-Based Virtual Screening and LC/MS-Guided Isolation Procedure for Identifying Phloroglucinol-Terpenoid Inhibitors of SARS-CoV-2” (J Nat Prod, 2022).
